Patent US10231954B2, “Neurodegenerative therapies” (LYTIX BIOPHARMA AS, priority 2014, dated 2019)
Where two headings read alike, the source gives them in different places.

What was measured:
Type in all cases: biochemical
ROCK 2 = ROCK 2 (Homo sapiens, UniProt O75116); experiment: Kinase profiling ROCK 2; details: for remaining activity at 100 µM: read-out: residual kinase activity, ROCK 2
Description: (§1) Any value less that 25 is considered to be highly significant inhibition.

NEK6 = NEK6 (Homo sapiens, UniProt Q9HC98); experiment: Kinase profiling NEK6; details: for remaining activity at 100 µM: read-out: residual kinase activity, NEK6
NEK6, sequence (Q9HC98 whole entry, species assumed): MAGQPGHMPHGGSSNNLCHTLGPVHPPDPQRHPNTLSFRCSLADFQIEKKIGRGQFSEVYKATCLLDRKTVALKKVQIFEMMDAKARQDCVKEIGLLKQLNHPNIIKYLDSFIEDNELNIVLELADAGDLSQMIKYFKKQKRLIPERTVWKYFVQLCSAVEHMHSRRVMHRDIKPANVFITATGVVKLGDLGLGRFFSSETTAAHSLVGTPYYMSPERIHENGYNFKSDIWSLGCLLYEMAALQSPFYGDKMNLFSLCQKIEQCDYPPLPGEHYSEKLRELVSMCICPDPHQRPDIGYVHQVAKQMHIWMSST
Description: as §1

MSK1 = MSK1 (Homo sapiens, UniProt O75582); experiment: Kinase profiling MSK1; details: for remaining activity at 100 µM: read-out: residual kinase activity, MSK1
MSK1, sequence (O75582 whole entry, species assumed): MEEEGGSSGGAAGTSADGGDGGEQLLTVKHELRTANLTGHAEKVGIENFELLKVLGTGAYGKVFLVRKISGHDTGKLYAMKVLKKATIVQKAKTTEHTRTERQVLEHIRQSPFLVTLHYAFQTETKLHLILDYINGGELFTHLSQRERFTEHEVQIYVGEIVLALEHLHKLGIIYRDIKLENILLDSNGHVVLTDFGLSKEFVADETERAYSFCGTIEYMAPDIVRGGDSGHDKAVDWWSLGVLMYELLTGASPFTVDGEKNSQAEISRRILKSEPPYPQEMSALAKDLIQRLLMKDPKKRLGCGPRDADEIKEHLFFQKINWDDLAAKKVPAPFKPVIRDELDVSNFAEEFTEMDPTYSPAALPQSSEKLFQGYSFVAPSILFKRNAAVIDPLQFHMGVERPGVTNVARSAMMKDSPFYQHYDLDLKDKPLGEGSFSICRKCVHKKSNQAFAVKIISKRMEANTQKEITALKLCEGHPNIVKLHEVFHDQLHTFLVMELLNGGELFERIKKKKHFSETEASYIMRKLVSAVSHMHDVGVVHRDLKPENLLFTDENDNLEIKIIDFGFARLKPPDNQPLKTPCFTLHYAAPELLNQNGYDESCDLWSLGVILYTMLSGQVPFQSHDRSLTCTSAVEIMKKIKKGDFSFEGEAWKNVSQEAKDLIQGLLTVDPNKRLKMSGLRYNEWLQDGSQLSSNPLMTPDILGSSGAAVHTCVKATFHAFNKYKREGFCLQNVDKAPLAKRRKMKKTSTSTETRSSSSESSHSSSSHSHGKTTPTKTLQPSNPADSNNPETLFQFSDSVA
Description: as §1

PRK2 = PRK2 (Homo sapiens, UniProt Q16513); experiment: Kinase profiling PRK2; details: for remaining activity at 100 µM: read-out: residual kinase activity, PRK2
Description: as §1

S6K1 = S6K1 (Homo sapiens, UniProt P23443); experiment: Kinase profiling S6K1; details: for remaining activity at 100 µM: read-out: residual kinase activity, S6K1
S6K1, sequence (P23443 whole entry, species assumed): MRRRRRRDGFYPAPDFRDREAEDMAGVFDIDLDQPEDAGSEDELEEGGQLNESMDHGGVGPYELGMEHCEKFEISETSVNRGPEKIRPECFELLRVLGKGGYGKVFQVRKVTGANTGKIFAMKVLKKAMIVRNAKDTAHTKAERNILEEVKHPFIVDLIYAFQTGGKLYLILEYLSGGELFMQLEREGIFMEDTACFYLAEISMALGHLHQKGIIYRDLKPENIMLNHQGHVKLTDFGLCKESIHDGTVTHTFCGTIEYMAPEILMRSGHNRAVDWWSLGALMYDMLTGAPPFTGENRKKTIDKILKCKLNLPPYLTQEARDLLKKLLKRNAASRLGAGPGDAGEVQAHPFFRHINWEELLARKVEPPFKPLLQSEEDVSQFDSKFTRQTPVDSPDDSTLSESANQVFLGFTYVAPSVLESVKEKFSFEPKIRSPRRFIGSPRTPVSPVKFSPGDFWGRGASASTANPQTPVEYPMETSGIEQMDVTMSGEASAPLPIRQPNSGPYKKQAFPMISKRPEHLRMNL
Description: as §1

SRPK1 = SRPK1 (Homo sapiens, UniProt Q96SB4); experiment: Kinase profiling SRPK1; details: for remaining activity at 100 µM: read-out: residual kinase activity, SRPK1
SRPK1, sequence (Q96SB4 whole entry, species assumed): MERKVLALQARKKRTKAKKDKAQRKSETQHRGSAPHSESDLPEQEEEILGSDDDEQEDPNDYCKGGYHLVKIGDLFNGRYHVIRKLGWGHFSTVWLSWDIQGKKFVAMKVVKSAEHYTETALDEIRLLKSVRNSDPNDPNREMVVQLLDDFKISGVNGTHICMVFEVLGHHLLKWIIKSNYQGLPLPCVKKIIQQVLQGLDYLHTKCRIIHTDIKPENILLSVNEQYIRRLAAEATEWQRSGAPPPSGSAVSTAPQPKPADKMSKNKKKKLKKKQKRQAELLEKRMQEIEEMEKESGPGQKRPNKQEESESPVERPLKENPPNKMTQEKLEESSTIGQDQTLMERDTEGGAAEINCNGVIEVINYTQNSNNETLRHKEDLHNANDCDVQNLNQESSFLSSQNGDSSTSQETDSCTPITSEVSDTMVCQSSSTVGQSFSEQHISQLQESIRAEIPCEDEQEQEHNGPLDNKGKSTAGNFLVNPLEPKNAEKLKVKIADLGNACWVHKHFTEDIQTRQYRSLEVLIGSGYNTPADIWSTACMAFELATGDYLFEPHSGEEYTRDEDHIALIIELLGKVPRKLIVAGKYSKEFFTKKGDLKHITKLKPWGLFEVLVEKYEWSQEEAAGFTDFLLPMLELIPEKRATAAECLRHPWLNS
Description: as §1

TrkA = TrkA (Homo sapiens, UniProt P04629); experiment: Kinase profiling TrkA; details: for remaining activity at 100 µM: read-out: residual kinase activity, TrkA
Description: as §1

HER4 = HER4 (Homo sapiens, UniProt Q15303); experiment: Kinase profiling HER4; details: for remaining activity at 100 µM: read-out: residual kinase activity, HER4
Description: as §1

MLK3 = MLK3 (Homo sapiens, UniProt Q16584); experiment: Kinase profiling MLK3; details: for remaining activity at 100 µM: read-out: residual kinase activity, MLK3
MLK3, sequence (Q16584 whole entry, species assumed): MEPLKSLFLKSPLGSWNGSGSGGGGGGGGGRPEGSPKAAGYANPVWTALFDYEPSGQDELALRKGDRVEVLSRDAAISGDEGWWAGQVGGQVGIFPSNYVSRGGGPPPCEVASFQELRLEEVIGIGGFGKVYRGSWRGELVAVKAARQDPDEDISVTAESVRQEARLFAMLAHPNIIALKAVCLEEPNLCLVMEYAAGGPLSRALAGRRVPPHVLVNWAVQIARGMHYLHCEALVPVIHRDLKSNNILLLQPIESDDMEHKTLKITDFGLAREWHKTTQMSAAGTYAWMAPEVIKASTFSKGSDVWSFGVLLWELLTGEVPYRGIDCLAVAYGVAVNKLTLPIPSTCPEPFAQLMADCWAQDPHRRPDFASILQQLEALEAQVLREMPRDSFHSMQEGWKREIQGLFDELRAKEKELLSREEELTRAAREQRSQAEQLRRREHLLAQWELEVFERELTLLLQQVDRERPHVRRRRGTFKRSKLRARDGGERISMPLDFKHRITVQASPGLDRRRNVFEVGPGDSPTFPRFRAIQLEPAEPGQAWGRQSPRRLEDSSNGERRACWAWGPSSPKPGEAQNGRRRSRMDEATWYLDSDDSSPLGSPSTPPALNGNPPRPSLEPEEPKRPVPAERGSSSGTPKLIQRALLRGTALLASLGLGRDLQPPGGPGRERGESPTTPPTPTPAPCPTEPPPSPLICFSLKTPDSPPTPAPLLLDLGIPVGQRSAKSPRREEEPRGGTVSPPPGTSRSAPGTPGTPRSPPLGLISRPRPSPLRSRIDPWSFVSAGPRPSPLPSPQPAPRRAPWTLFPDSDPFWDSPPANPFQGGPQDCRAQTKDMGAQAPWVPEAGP
Description: as §1

p38b MAPK = p38b MAPK (Homo sapiens, UniProt Q15759); experiment: Kinase profiling p38b MAPK; details: for remaining activity at 100 µM: read-out: residual kinase activity, p38b MAPK
p38b MAPK, sequence (Q15759 whole entry): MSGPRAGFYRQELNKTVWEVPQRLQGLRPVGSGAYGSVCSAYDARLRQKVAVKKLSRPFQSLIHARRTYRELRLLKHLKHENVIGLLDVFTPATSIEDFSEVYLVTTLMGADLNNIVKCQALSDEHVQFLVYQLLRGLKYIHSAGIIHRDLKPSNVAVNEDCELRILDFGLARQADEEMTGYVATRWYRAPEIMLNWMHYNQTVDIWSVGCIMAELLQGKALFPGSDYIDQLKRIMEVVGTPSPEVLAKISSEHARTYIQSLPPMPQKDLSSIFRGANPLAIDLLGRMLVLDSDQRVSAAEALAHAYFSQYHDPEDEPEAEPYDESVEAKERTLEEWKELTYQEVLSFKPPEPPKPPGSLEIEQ
Description: as §1

LKB1 = target: T1, LKB1 (Homo sapiens, UniProt Q15831); experiment: Kinase profiling LKB1; details: for remaining activity at 100 µM: read-out: residual kinase activity, LKB1
T1 sequence (Q15831 1-433): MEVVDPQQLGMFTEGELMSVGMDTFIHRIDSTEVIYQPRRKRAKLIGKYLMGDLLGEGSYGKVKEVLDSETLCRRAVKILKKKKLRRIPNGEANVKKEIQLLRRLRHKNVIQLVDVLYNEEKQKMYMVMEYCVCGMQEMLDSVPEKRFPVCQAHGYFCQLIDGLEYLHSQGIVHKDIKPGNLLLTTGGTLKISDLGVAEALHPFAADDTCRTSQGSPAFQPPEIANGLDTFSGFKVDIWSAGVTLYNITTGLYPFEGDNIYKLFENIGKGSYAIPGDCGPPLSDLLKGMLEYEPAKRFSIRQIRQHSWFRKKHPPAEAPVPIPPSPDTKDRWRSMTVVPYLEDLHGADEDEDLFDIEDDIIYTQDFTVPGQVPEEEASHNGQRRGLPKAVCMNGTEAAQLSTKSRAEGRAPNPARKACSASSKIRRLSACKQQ
T1 sequence (Q7RTN6 1-431 partner): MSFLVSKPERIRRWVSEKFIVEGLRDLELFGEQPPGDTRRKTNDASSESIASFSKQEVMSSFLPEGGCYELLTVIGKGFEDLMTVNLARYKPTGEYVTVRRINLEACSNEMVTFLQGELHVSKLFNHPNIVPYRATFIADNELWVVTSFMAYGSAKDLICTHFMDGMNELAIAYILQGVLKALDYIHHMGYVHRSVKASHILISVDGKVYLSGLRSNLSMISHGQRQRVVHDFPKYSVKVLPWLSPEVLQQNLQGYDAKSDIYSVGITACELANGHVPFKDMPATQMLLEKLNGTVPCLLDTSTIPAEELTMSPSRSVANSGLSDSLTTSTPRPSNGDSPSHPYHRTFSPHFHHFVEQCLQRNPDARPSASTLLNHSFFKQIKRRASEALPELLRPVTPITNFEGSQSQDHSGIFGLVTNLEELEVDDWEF
T1 sequence (Q9Y376 1-341 partner): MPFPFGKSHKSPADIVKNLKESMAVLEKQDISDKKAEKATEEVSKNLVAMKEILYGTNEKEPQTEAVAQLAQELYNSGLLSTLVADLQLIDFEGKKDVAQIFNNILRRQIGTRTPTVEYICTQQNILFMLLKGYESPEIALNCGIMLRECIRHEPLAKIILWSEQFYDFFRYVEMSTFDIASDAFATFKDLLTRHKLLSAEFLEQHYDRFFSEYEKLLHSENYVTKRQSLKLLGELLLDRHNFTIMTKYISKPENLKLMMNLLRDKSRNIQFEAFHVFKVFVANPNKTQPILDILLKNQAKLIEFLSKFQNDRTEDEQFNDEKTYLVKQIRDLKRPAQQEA
Description: as §1

PKCz = target: T2, PKCz (Homo sapiens, UniProt Q05513); experiment: Kinase profiling PKCz; details: for remaining activity at 100 µM: read-out: residual kinase activity, PKCz
T2 sequence (Q05513 1-592): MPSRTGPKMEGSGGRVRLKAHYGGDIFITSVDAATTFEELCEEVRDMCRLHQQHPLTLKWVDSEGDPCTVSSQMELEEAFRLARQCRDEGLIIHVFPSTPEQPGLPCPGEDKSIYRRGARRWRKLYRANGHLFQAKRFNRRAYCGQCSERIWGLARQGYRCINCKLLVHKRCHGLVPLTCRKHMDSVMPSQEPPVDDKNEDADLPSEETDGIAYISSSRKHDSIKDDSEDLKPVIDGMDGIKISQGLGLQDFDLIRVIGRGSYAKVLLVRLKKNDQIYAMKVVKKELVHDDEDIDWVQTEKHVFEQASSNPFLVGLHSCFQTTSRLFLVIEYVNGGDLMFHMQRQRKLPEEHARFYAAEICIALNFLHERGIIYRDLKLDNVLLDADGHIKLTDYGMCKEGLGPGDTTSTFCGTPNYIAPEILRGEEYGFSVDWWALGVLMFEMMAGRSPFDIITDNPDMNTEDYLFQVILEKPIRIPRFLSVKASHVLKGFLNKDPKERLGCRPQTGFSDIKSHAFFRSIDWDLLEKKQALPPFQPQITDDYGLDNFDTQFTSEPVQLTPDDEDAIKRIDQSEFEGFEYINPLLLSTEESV
Description: as §1

TAK1 = target: T3, TAK1 (Homo sapiens, UniProt O43318); experiment: Kinase profiling TAK1; details: for remaining activity at 100 µM: read-out: residual kinase activity, TAK1
T3 sequence (O43318 1-303 limits assumed): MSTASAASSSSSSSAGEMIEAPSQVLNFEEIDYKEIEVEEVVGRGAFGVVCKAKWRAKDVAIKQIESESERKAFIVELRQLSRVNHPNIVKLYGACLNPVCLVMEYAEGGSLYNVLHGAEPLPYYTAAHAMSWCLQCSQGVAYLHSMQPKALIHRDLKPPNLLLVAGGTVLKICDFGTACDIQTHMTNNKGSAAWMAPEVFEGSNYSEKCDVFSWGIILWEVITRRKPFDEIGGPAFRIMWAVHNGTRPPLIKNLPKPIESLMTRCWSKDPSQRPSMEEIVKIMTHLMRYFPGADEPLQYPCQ
T3 sequence (Q15750 437-504 partner limits assumed): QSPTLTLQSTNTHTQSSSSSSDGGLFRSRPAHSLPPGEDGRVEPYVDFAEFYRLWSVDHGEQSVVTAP
Description: as §1

MKK2 = MKK2 (Homo sapiens, UniProt P36507); experiment: Kinase profiling MKK2; details: for remaining activity at 100 µM: read-out: residual kinase activity, MKK2
MKK2, sequence (P36507 whole entry, species assumed): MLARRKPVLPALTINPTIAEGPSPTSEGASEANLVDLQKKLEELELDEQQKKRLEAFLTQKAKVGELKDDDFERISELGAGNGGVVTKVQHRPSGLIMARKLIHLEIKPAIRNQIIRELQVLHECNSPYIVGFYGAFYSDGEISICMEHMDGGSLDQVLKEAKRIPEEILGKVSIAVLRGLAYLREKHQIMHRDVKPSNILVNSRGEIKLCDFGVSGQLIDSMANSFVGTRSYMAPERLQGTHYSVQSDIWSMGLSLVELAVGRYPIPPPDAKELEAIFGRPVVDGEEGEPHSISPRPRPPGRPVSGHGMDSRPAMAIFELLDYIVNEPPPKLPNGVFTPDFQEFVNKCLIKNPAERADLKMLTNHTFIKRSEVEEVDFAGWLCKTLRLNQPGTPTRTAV
Description: as §1

PKCγ = PKCγ (Homo sapiens, UniProt P05129); experiment: Kinase profiling PKCγ; details: for remaining activity at 100 µM: read-out: residual kinase activity, PKCγ
Description: as §1

[1] = 100 micromolar inhibitor concentration, 100 is no change
[2] = 100 micromolar inhibitor, 100 = no change

Structure (SMILES) | remaining activity at 100 µM (ROCK 2; [1]) | remaining activity at 100 µM (NEK6; [1]) | remaining activity at 100 µM (MSK1; [1]) | remaining activity at 100 µM (PRK2; [1]) | remaining activity at 100 µM (S6K1; [1]) | remaining activity at 100 µM (SRPK1; [1]) | remaining activity at 100 µM (TrkA; [1]) | remaining activity at 100 µM (HER4; [1]) | remaining activity at 100 µM (MLK3; [1]) | remaining activity at 100 µM (p38b MAPK; [1]) | remaining activity at 100 µM (LKB1; [1]) | remaining activity at 100 µM (PKCz; [1]) | remaining activity at 100 µM (TAK1; [1]) | remaining activity at 100 µM (MKK2; [1]) | remaining activity at 100 µM (PKCγ; [1]) | residual kinase activity, ROCK 2 (ROCK 2; [1]) | residual kinase activity, NEK6 (NEK6; [1]) | residual kinase activity, MSK1 (MSK1; [1]) | residual kinase activity, PRK2 (PRK2; [1]) | residual kinase activity, S6K1 (S6K1; [1]) | other results
CC(=O)Nc1nc2ccc(O)cc2s1 [Compound 01-71] | 34% | 75% | 31% | 36% | 23% | 44% | 42% | 36% | 15% | 106% | 17% | 74% | 11% | 48% | 76% | – | – | – | – | – | –
CC(=O)Nc1nc2ccc(C(F)(F)F)cc2s1 [Compound 01-90] | 80% | 107% | 87% | 94% | 85% | 41% | 45% | 97% | 51% | 82% | 79% | 81% | 83% | 73% | 53% | – | – | – | – | – | –
CC(=O)Nc1nc2ccc(C#N)cc2s1 [Compound 01-94] | 69% | 86% | 81% | 70% | 73% | 47% | 87% | 90% | 55% | 100% | 35% | 80% | 17% | 54% | 83% | – | – | – | – | – | –
CC(=O)Nc1cccc(NC(=O)c2nc3ccc(O)cc3s2)c1 [Compound 03-07, N-(3-acetamidophenyl)-6-hydroxybenzo[d]thiazole-2-carboxamide] | – | – | – | – | – | – | – | – | – | – | – | – | – | – | – | – | – | – | – | – | remaining activity at 100 µM (ROCK 2; [2]): 27%; remaining activity at 100 µM (NEK6; [2]): 91%; remaining activity at 100 µM (MSK1; [2]): 62%; remaining activity at 100 µM (PRK2; [2]): 74%; remaining activity at 100 µM (S6K1; [2]): 26%; remaining activity at 100 µM (SRPK1; [2]): 27%; remaining activity at 100 µM (TrkA; [2]): 59%; remaining activity at 100 µM (HER4; [2]): 50%; remaining activity at 100 µM (MLK3; [2]): 39%; remaining activity at 100 µM (p38b MAPK; [2]): 96%; remaining activity at 100 µM (LKB1; [2]): 83%; remaining activity at 100 µM (PKCz; [2]): 107%; remaining activity at 100 µM (TAK1; [2]): 53%; remaining activity at 100 µM (MKK2; [2]): 88%; remaining activity at 100 µM (PKCγ; [2]): 98%
O=C(Nc1nc2cc(O)ccc2s1)c1ccncc1 [Compound 03-11] | – | – | – | – | – | – | – | – | – | – | – | – | – | – | – | 80 | 72 | 97 | 77 | 83 | residual kinase activity, SRPK1 (SRPK1; [1]): 66; residual kinase activity, TrkA (TrkA; [1]): 87; residual kinase activity, HER4 (HER4; [1]): 96; residual kinase activity, MLK3 (MLK3; [1]): 95; residual kinase activity, p38b MAPK (p38b MAPK; [1]): 97; residual kinase activity, LKB1 (LKB1; [1]): 87; residual kinase activity, PKCz (PKCz; [1]): 86; residual kinase activity, TAK1 (TAK1; [1]): 55; residual kinase activity, MKK2 (MKK2; [1]): 98; residual kinase activity, PKCγ (PKCγ; [1]): 101
O=C(Nc1nc2ccc(O)cc2s1)c1ccccn1 [Compound 03-12] | – | – | – | – | – | – | – | – | – | – | – | – | – | – | – | 68 | 98 | 90 | 66 | 50 | residual kinase activity, SRPK1 (SRPK1; [1]): 63; residual kinase activity, TrkA (TrkA; [1]): 49; residual kinase activity, HER4 (HER4; [1]): 33; residual kinase activity, MLK3 (MLK3; [1]): 46; residual kinase activity, p38b MAPK (p38b MAPK; [1]): 105; residual kinase activity, LKB1 (LKB1; [1]): 64; residual kinase activity, PKCz (PKCz; [1]): 88; residual kinase activity, TAK1 (TAK1; [1]): 33; residual kinase activity, MKK2 (MKK2; [1]): 82; residual kinase activity, PKCγ (PKCγ; [1]): 143
